Experimental findings from patent US20060276416A1, “Methods and compositions for treating flushing and drug induced weight gain” (Sirtris Pharmaceuticals, Inc., priority 2005, published 2006) are described below.

Assay [1] relates to C. elegans. Nature of the assay: C. elegans lifespan assay. It counts as in vivo. The procedure: Thus, the presence of resveratrol in the growth media of C. elegans extends their lifespan.
Bristol N2 (Caenorhabditis Genetics Center) was used as the wild-type strain. The sir-2.1 mutant strain was generated by backcrossing VC 199 (sir-2.1 (ok434)) to N2 four times. Cultures were grown on standard NGM media and maintained on E. coli strain OP50. For the lifespan assays, synchronized animals were transferred to treatment plates as young adults (2 d after hatching, day 0 of assay), and were transferred to fresh treatment plates every 2 days for the first 6 to 8 days of the assay. […] For some lifespan trials, heat-killed OP50 were used as a food source. OP50 cultures were heated to 65° C. for 30 minutes, then pelleted and resuspended in 1/10 volume in S Basal supplemented with 10 mM MgSO4. In all assays, worms were monitored daily for mortality by gently probing with a platinum pick. Assays were performed at 24° C. To assay worm feeding rates, worms at the indicated stages were placed on treatment plates (no FUdR) for 4-5 hours, then videoed for 1 minute using a Pixelink PL-662 camera. The frame rate was slowed and the pumping rate of the pharynx was counted. To assay fecundity, gravid hermaphrodites (5 per plate, raised from synchronized L1s on normal or treatment plates) were allowed to lay eggs on their respective media for 5 hours, and the total number of eggs was counted.

The test system of assay [2] is C. elegans. Nature of the assay: C. elegans fat accumulation, Nile Red staining. It counts as in vivo. The procedure:
Fat accumulation was visualized with Nile Red staining, as described further below and in Ashrafi K, et al. Nature 421:268-27 (2003).
Synchronized starved L1 worms were grown in the presence of Nile Red. Strains were grown on NGM plates at 25° C. for approximately 48 hours until the young adult stage was reached. 20-30 young adult worms were then washed 2× with M9 buffer and transferred to new NGM/Nile red experimental plates that contained either OP50 or HTT5 E. coli carrying the L4440 RNAi control vector.
Young adults were transferred to plates containing the appropriate vector, Nile Red stain and drug then maintained at 25° C.
Nile Red: Nile Red Powder (Sigma #N-3013) was dissolved in acetone at 500 μg/ml, diluted in 1× Phosphate Buffered Saline (PBS) including appropriate drug and applied to surface of Nematode Growth Media (NGM) plates previously seeded with OP50 or RNAi bacteria, at a final concentration of 0.05 μg/ml. Fat content was monitored and recorded by fluorescence microscopy.

Assay [3] relates to phosphorylation of ACC. The assay is described as follows: ACC phosphorylation Western in 3T3-L1 adipocytes. It counts as cell-based. The settings on record: day 6 and day 10 of differentiation. The procedure:
ACC was also phosphorylated when the cells were incubated in serum free media overnight before harvesting (lanes marked “SF”). The reason for the extra band in the SIRT1 blot at day 6 is unknown, but it may be a modified form of SIRT1. Tubulin served as a loading control.

The test system of assay [4] is AMPK at Thr172 and ACC at serine 79. The assay is described as follows: AMPK and ACC phosphorylation Western in CHO-HIR cells. It counts as cell-based.
Experimental: Cells were harvested after 30 minutes and lysates were immediately boiled in SDS and subjected to Western analysis with site-specific antibodies. Phosphorylation of AMPK at Thr172 indicates activation of the kinase. Active AMPK phosphorylates and inactivates ACC at serine 79.
The test system of assay [5] is ribosomal DNA recombination. The assay is described as follows: Ribosomal DNA recombination assay (loss of ADE2 marker). It counts as cell-based, S. cerevisiae.
The test system of assay [6] is S. cerevisiae. Nature of the assay: Yeast replicative lifespan by micro-manipulation. It counts as cell-based. The procedure:
Average lifespan for wild type, 22.9 generations, quercetin, 23.4; piceatannol.
Lifespan measurements were performed using PSY316AT MATα as previously described^35. All compounds for lifespan analyses were dissolved in 95% ethanol and plates were dried and used within 24 hours. Prior to lifespan analysis, cells were pre-incubated on their respective media for at least 15 hours. Following transfer to a new plate, cells were equilibrated on the medium for a minimum of 4 hours prior to micro-manipulating them. At least 30 cells were examined per experiment and each experiment was performed at least twice. Statistical significance of lifespan differences was determined using the Wilcoxon rank sum test. Differences are stated to be significant when the confidence is higher than 95%.

Assay [7] addresses T1, recombinant human SIRT1 (Homo sapiens, UniProt Q96EB6).
T1 sequence (Q96EB6 1-747): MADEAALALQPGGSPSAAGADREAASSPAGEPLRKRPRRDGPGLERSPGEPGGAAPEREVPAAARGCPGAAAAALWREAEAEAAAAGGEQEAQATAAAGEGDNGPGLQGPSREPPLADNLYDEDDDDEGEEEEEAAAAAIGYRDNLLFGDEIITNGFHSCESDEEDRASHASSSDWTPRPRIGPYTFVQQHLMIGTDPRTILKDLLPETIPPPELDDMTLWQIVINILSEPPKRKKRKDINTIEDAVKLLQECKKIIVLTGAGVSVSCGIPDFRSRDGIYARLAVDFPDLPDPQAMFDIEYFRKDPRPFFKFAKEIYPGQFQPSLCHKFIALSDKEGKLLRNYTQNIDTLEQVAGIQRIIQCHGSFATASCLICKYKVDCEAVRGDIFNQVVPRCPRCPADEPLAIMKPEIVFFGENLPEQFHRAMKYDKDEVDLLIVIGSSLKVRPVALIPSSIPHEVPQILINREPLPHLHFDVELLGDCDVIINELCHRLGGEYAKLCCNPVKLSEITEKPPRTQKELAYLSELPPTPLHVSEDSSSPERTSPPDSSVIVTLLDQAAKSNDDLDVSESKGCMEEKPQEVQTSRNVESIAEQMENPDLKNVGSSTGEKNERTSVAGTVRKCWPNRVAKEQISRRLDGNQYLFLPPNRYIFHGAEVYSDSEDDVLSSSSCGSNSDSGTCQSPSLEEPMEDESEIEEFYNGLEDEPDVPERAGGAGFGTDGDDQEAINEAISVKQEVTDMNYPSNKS
The assay is described as follows: SIRT1 fluorescent deacetylation assay (p53-382 acetylated peptide). It counts as biochemical.
Experimental: To identify compounds that modulate SIRT1 activity, a number of small molecule libraries were screened using a fluorescent deacetylation assay in 96-well plates^26. The substrate used in the assay was a fluorogenic peptide based on the sequence encompassing the p53-K382 acetylation site, a known target of SIRT1 in vivo^20,21,27. […] The small molecule libraries included analogues of nicotinamide, ε-acetyl lysine, NAD^+, nucleotides, nucleotide analogues and purinergic ligands.
From 0.1 to 1 μg of SIRT1 and 1.5 μg of Sir2 were used per deacetylation assay (in 50 μl total reaction) as previously described^26. SIRT1 assays and certain of those for Sir2 employed the p53-382 acetylated substrate (‘Fluor de Lys-SIRT1’, BIOMOL) rather than FdL.
Themed compound libraries (BIOMOL) were used for primary and secondary screening. Most polyphenol compounds were dissolved at 10 mM in dimethylsulfoxide (DMSO) on the day of the assay. For water soluble compounds and negative controls, 1% v/v DMSO was added to the assay. In vitro fluorescence assay results were read in white ½-volume 96-well microplates (Corning Costar 3693) with a CytoFluor™ II fluorescence plate reader (PerSeptive Biosystems, Ex. 360 nm, Em. 460 nm, gain=85). […] Unless otherwise indicated all initial rate measurements were means of three or more replicates, obtained with single incubation times, at which point 5% or less of the substrate initially present had been deacetylated. Calculation of net fluorescence increases included subtraction of a blank value, which in the case of Sir2 was obtained by omitting the enzyme from the reaction and in the case of SIRT1 by adding an inhibitor (200 μM suramin or 1 mM nicotinamide) to the reaction prior to the acetylated substrate. A number of the polyphenols partially quenched the fluorescence produced in the assay and correction factors were obtained by determining the fluorescence increase due to a 3 μM spike of an FdL deacetylated standard (BIOMOL, catalog number KI-142). All error bars represent the standard error of the mean.
All SIRT1 rate measurements used in the calculation of “Ratio to Control Rate” were obtained with 25 μM NAD^+ and 25 μM p53-382 acetylated peptide substrate were performed as described above and in K. T. Howitz et al. Nature (2003) 425: 191. All ratio data were calculated from experiments in which the total deacetylation in the control reaction was 0.25-1.25 μM peptide or 1-5% of the initial concentration of acetylated peptide.

For the molecule `Oc1ccc(/C=C/c2cc(O)cc(O)c2)cc1` [Resveratrol, 3,5,4′-Trihydroxy-trans-stilbene], the “Lifespan extension (in words)” value in assay [1] (sir-2.1 null mutant) is “did not exhibit a significant lifespan extension”. For the same molecule, in assay [1] (wild-type worms, 100 μM, heat-killed or live E. coli, maximum), the Lifespan extension result is given as “up to 15%”. Moreover, in assay [2] (100 μM, 48 hours, control 2.5% v/v DMSO), the Fat staining result is given as “Significant reduction”. The results for the Fat mobilization result in assay [2] (DAF-16 mutant worms (mgDf47)), in assay [2] (RNA inactivation of TOC1.8 (AMPK) or F41E7.3 (COT)) and in assay [2] (Sir2.1 RNAi) were “stimulates fat mobilization”, “blocks resveratrol-stimulated fat mobilization” and “did not show resveratrol induced fat mobilization”, respectively. The “Reduction of fat content” value in assay [2] (normal worms, RNAi vector alone) amounted to 75%. For the same molecule, the “Fat accumulation (in words)” value in assay [2] (wild-type N2, 10 μM or 50 μM) was “marked decrease”. For the same molecule, in assay [2] (wild-type N2, 100 μM, overnight), the “Reduction of fat accumulation” value is recorded as 90%. Besides, the “Phosphorylation of ACC” value in assay [3] is given as “stimulated the phosphorylation of ACC”. The “Activation of AMPK” value in assay [4] (100 nM to 50 μM resveratrol, increasing concentrations) was “activation of AMPK”. Moreover, the “Phosphorylation of AMPK and ACC” value in assay [4] (AICAR 500 μM, resveratrol 12.5, 25 or 50 μM, 30 minutes) was “stimulates phosphorylation of AMPK and ACC”. Besides, the “Effect on rDNA recombination” value is “decreased” in assay [5] (in the presence of the Sir2 inhibitor nicotinamide) and “does not suppress” in assay [5] (sir2 strain). The Average lifespan was found to be 39.9 generations in assay [6] (glucose-restricted+resveratrol (CR+R)); 35.7 generations in assay [6] (growth on resveratrol 10 μM, wild type untreated 21.0); 29.4 generations in assay [6] (growth on resveratrol 100 μM, wild type untreated 21.0); 29.3 generations in assay [6] (growth on resveratrol 500 μM, wild type untreated 21.0); 33.1 generations in assay [6] (pnc1Δ+resveratrol, pnc1Δ 19.2); 10.0 generations in assay [6] (sir2Δ+resveratrol, sir2Δ 9.9). Besides, the Average lifespan in assay [6] (wild type+resveratrol, wild type untreated 19.0) stood at 37.8 generations. In assay [7] (25 μM NAD+, 25 μM p53-382 acetylated peptide), the “Concentration at which the activating effect was essentially saturated” value is reported as 100 λM. Moreover, the Vmax in assay [7] (1 mM p53-382 acetylated peptide, variable NAD+, +100 μM resveratrol (control 1863)) came out at 1749 AFU/min; in assay [7] (3 mM NAD+, variable p53-382 acetylated peptide, +100 μM resveratrol (control 1107)), 926 AFU/min.
